# Reference: ChEMBL document CHEMBL3046421, “Transition metals in organic synthesis - Part 83#: Synthesis and pharmacological potential of carbazoles” (Med Chem Res, 2008)
# Legend:
# [1] = test system: Vero; test: Cytotoxicity against Chlorocebus aethiops (African green monkey) Vero cells; format: cell-based; details: Chlorocebus sabaeus
# [2] = Selectivity index, ratio of IC50 for african green monkey Vero cells to MIC90 for Mycobacterium tuberculosis H37Rv; format: toxicity, cell-based; details: read-out: Selectivity Index
# [3] = test system: Mycobacterium tuberculosis; test: Antimycobacterial activity against Mycobacterium tuberculosis H37Rv by microplate alamar blue assay; format: functional
# [4] = molecular target: T1, Polyunsaturated fatty acid 5-lipoxygenase (Rattus norvegicus, UniProt P12527); test: Inhibition of Rattus norvegicus (rat) 5-lipoxygenase
# T1 sequence (P12527 whole entry): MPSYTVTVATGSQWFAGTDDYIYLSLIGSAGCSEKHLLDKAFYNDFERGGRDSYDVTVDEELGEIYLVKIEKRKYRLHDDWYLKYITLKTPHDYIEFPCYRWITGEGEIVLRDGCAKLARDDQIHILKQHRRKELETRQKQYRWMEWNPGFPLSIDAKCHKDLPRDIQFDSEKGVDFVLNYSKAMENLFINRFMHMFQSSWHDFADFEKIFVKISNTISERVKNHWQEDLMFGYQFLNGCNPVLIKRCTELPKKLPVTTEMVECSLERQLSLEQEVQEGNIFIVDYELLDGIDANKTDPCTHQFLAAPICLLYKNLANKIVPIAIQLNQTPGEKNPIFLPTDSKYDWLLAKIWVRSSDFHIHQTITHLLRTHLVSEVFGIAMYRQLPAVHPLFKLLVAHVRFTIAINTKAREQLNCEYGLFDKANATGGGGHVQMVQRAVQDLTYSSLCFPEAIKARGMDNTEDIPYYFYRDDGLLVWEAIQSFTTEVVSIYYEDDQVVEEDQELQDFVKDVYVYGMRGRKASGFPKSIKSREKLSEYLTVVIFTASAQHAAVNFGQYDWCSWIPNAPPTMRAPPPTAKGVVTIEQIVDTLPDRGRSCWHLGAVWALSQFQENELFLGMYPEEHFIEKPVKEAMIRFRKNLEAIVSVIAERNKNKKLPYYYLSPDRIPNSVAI
# [5] = test system: Mycobacterium tuberculosis; test: Antimycobacterial activity against Mycobacterium tuberculosis H37Ra; format: functional
# [6] = test system: Mycobacterium tuberculosis; test: Antimycobacterial activity against Mycobacterium tuberculosis H37Rv; format: functional
# [7] = test system: Plasmodium falciparum; test: Antiplasmodial activity against Plasmodium falciparum; format: functional, organism-based
# [8] = test system: Brain; test: Inhibition of free-radical-induced lipid peroxidation in Rattus norvegicus (rat) brain homogenates; format: functional, tissue-based
SMILES,IC50 [1] [µM],selectivity ratio [2],MIC90 [3] [µM],also measured
COc1ccc2[nH]c3ccc(C=O)cc3c2c1Br [5-BROMO-3-FORMYL-6-METHOXYCARBAZOLE],78,< 0.6,> 128,
CO[C@H]1/C=C/O[C@@]2(C)Oc3c(C)c(O)c4c(O)c(c(/C=N/N5CCN(C)CC5)c(O)c4c3C2=O)NC(=O)/C(C)=C\C=C\[C@H](C)[C@H](O)[C@@H](C)[C@@H](O)[C@@H](C)[C@H](OC(C)=O)[C@@H]1C [RIFAMPIN],105,1170,0.09,
Cc1ccc2[nH]c3ccc(O)cc3c2c1 [GLYCOZOLININE],57,0.5,123,
COC(=O)c1ccc2[nH]c3cc(O)ccc3c2c1 [CLAUSINE M],35,1.8,19,
O=Cc1cc2c(cc1O)[nH]c1cc(O)ccc12 [CLAUSINE O],114,1.3,89,
COC(=O)c1ccc2[nH]c3ccc(OC)cc3c2c1,> 128,> 4,32,
CC(C)=CCc1cc2c(cc1O)[nH]c1ccc(C)cc12 [SIAMENOL],15,0.7,22,
CC[C@H](C)CCC1(C)OC1c1c(C)c(O)cc2c1[nH]c1c(O)ccc(CO)c12 (stereo partly specified) [EPOCARBAZOLIN B],,,,IC50 [4]: 2.6 µM
Cc1c(O)cc2c([nH]c3c(O)ccc(CO)c32)c1C1OC1(C)CCC(C)C (racemic) [RAC-EPOCARBAZOLIN A],,,,IC50 [4]: 2.4 µM
COc1ccc2c(c1)[nH]c1cc(OC)c(C(=O)O)cc12 [CLAUSINE K],25,< 0.2,> 128,MIC90 [5]: 100 µg/mL
COc1ccc2[nH]c3ccc(C=O)cc3c2c1,> 128,> 1.3,99,MIC90 [6]: 15.6 µg/mL
"COC1=C(C)C(=O)c2[nH]c3ccccc3c2C1=O [3-METHOXY-2-METHYLCARBAZOLE-1,4-QUINONE]",> 128,> 16,8,
COC(=O)c1cc2c(cc1OC)[nH]c1cc(OC)ccc12 [CLAUSZOLINE C],,,,IC50 [7]: 5.5 µg/mL
COc1ccc2c(c1)[nH]c1ccc(C(=O)O)cc12 [CLAUSINE N],,,> 128,
COc1ccc2c(c1)[nH]c1ccc(C=O)cc12 [CLAUSZOLINE K],,,> 128,
COc1c(C)c(C[C@@H](C)OC(C)=O)c2[nH]c3ccc(Br)cc3c2c1OC(C)=O,25,0.5,55,
COc1ccc2c(c1)[nH]c1cc(OC)c(C=O)cc12 [LANSINE],96,< 0.8,> 128,
COC(=O)c1ccc2[nH]c3cc(OC)ccc3c2c1 [CLAUSINE C],,,> 128,
CC(C)=CCc1c(O)ccc2[nH]c3ccc(C=O)cc3c12 [MICROMELINE],,,> 128,MIC90 [6]: 31.5 µg/mL
COc1ccc2c(c1)[nH]c1ccc(C)cc12 [7-METHOXY-3-METHYLCARBAZOLE],,,> 128,
Cc1ccc2[nH]c3ccc4occc4c3c2c1 [EUSTIFOLINE-D],> 128,,> 128,
COc1ccc2c(c1)[nH]c1cc(OC)c(C)cc12,> 128,,> 128,
COc1ccc2[nH]c3ccc(C)cc3c2c1 [GLYCOZOLINE],,,> 128,
COc1c(C)c(C[C@@H](C)O)c2[nH]c3ccc(CC=C(C)C)cc3c2c1O [(R)-(-)-NEOCARAZOSTATIN B],,,,IC50 [8]: 0.39 µM
NNC(=O)c1ccncc1 [ISONIAZID],> 128,> 320,0.4,
